8 compounds from patent publication US9371345B2, “Metathesis catalysts containing onium groups” (Apeiron Synthesis S.A., priority 2012, dated 2016) can be followed below.

One data set in a line: Solubility of the complex in water and alcohols. Conditions: methanol, ethanol, water/alcohol mixture. Format: physicochemical.
With `CC(C)c1cccc(C(C)C)c1N1CCN(c2c(C(C)C)cccc2C(C)C)[CH]1[Ru]([Cl])([Cl])=[CH]c1ccccc1OC1CC[N+](C)(C)CC1` [Complex 48], the “Solubility in methanol, ethanol and water/alcohol mixture, in words” value was “excellent solubility”.

The same data set, now with this note: neat / pure water.
`CC(C)c1cccc(C(C)C)c1N1CCN(c2c(C(C)C)cccc2C(C)C)[CH]1[Ru]([Cl])([Cl])=[CH]c1ccccc1OC1CC[N+](C)(C)CC1` [Complex 48]: the “Solubility in water, in words” value is on record as “Insoluble”.

Still in this data set, the particulars now being: water.
In turn, `Cc1cc(C)c(N2CC(C[N+](C)(C)C)N(c3c(C)cc(C)cc3C)[CH]2[Ru]([Cl])([Cl])=[CH]c2cc([N+](=O)[O-])ccc2OC(C)C)c(C)c1` (stereo not drawn) [Complex 50] showed a Water solubility of 3000 µg/mL.
Regarding `Cc1cc(C)c(N2CC(C[N+](C)(C)C)N(c3c(C)cc(C)cc3C)[CH]2[Ru]([Cl])([Cl])=[CH]c2ccccc2OC2CC[N+](C)(C)CC2)c(C)c1` (stereo not drawn) [Complex 51], the Water solubility amounted to 35000 µg/mL.
The same measure, in the same setting: in the case of `CC[N+]1(C)CCN(CC2CN(c3c(C)cc(C)cc3C)[CH]([Ru]([Cl])([Cl])=[CH]c3ccccc3OC(C)C)N2c2c(C)cc(C)cc2C)CC1` (stereo not drawn) [Complex 52] it was 3000 µg/mL; in that of `CC[N+]1(C)CCN(CC2CN(c3c(C)cc(C)cc3C)[CH]([Ru]([Cl])([Cl])=[CH]c3ccccc3OC3CC[N+](C)(C)CC3)N2c2c(C)cc(C)cc2C)CC1` (stereo not drawn) [Complex 53], 35000 µg/mL.
`CC(C)Oc1ccccc1[CH]=[Ru]([Cl])([Cl])[CH]1N(c2c(C(C)C)cc(C[N+]3(C)CCOCC3)cc2C(C)C)CCN1c1c(C(C)C)cc(C[N+]2(C)CCOCC2)cc1C(C)C` [Complex 54]: the Water solubility is 2000 µg/mL.
In the case of `CC(C)c1cc(C[N+]2(C)CCOCC2)cc(C(C)C)c1N1CCN(c2c(C(C)C)cc(C[N+]3(C)CCOCC3)cc2C(C)C)[CH]1[Ru]([Cl])([Cl])=[CH]c1ccccc1OC1CC[N+](C)(C)CC1` [Complex 55], the Water solubility was 65000 µg/mL.
Take `Cc1cc(C)c(N2CCN(c3c(C)cc(C)cc3C)[CH]2[Ru]([Cl])([Cl])=[CH]c2cc([N+](C)(C)C)ccc2OC(C)C)c(C)c1` [Complex 56]: the Water solubility was determined as 1000 µg/mL.
